Our source for the Ki values is patent publication US20040248887A1, “Inhibitors of cathepsin S” (IRM LLC, priority 2003, published 2004).

Cathepsin S, sequence (P25774 115-331, species assumed): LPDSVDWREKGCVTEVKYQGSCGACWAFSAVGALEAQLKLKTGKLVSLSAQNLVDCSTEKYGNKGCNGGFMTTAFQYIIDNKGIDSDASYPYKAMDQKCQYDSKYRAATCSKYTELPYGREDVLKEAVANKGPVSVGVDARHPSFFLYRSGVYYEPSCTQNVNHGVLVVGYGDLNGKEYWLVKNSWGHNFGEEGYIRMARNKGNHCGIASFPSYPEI

This assay concerns the target Cathepsin S (Homo sapiens, UniProt P25774). The assay can be described thus: Cathepsin S inhibition, fluorogenic peptide substrate kinetic assay. Conditions: Table II; Cathepsin S inhibition constant, pH5.5; read-out: Ki Cat. S. It counts as biochemical. In short, it runs like this: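 Reactions were started with 50 μM (final) acetyl-His-Pro-Val-Lys-aminocarbamoylcoumarin, and hydrolysis was followed by fluorescence (ex 380/em 450 nm). Apparent inhibition constants from enzyme progress curves were converted to Ki for competitive inhibitors using substrate concentration and Km.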
With “(S)-3-Cyclohexyl-N-[2-(5-fluoro-2,3-dihydro-indol-1-yl)-ethyl]-2-(5-isoxazol-3-yl-thiophene-2-sulfonylamino)-propionamide [Compound 223]”, the Ki is below 1000 nM.

For `C[C@@H](CN1CC(C)(C)c2cc(F)ccc21)NC(=O)[C@H](CC(C)(C)C)NC(=O)[C@H]1CCCO1` [Compound 271, Tetrahydro-furan-2-(R)-carboxylic acid {1-(S)-[2-(5-fluoro-3,3-dimethyl-2,3-dihydro-indol-1-yl)-1-(S)-methyl-ethylcarbamoyl]-3,3-dimethyl-butyl}-amide], the Ki was below 10000 nM.

As to `C[C@@H](CNc1cccc(Cl)c1F)NC(=O)[C@H](CC1CCCCC1)NC(=O)c1ccc(-c2cccc(F)c2)o1` [Compound 96, 5-(3-Fluoro-phenyl)-furan-2-carboxylic acid {1-(S)-[2-(3-chloro-2-fluoro-phenylamino)-1-(S)-methyl-ethylcarbamoyl]-2-cyclohexyl-ethyl}-amide], the Ki is below 1000 nM.

For the compound `Cc1cccc(C(=O)N[C@@H](Cc2ccccc2)C(=O)NCCN2CCc3cc(F)ccc32)c1` [Compound 205, N-((S)-1-(2-(5-fluoroindolin-1-yl)ethylcarbamoyl)-2-phenylethyl)-3-methylbenzamide], the Ki was below 1000 nM.

`COc1cccc(C(=O)N[C@@H](CC2CCCCC2)C(=O)N[C@@H](CO)CN2CCc3cc(F)ccc32)c1` [Compound 150, N-{2-Cyclohexyl-1-(S)-[2-(5-fluoro-2,3-dihydro-indol-1-yl)-1-(R)-hydroxymethyl-ethylcarbamoyl]-ethyl}-3-methoxy-benzamide]: the Ki is below 100 nM.

On to `Cc1cccc(C(=O)N[C@@H](CC(C)C)C(=O)N[C@@H](CCC(N)=O)CN2CCc3cc(F)ccc32)c1` [Compound 44, (S,S)-N-{1-[3-Carbamoyl-1-(5-fluoro-2,3-dihydro-indol-1-ylmethyl)-propylcarbamoyl]-3-methyl-butyl}-3-methyl-benzamide], for which the Ki was below 100 nM.

Take `O=C(NCCN1CCc2cc(F)ccc21)[C@H](CC1CCCCC1)NS(=O)(=O)c1ccc(C(F)(F)F)cc1` [Compound 229, (S)-3-Cyclohexyl-N-[2-(5-fluoro-2,3-dihydro-indol-1-yl)-ethyl]-2-(4-trifluoromethyl-benzenesulfonylamino)-propionamide]: the Ki was below 1000 nM.

Take `Cc1cc(NC[C@H](C)NC(=O)[C@H](CC2CCCCC2)NC(=O)c2ccc(-c3cccc(F)c3)o2)on1` [Compound 247, 5-(3-Fluoro-phenyl)-furan-2-carboxylic acid {2-cyclohexyl-1-(S)-[1-(S)-methyl-2-(3-methyl-isoxazol-5-ylamino)-ethylcarbamoyl]-ethyl}-amide]: the Ki was below 1000 nM.

As for `CC(C)(C)C[C@H](NC(=O)OC(C)(C)C)C(=O)N[C@@H](COCc1ccccc1)CN1CCc2cc(F)ccc21` [Compound 154, {1-(S)-[1-(R)-Benzyloxymethyl-2-(5-fluoro-2,3-dihydro-indol-1-yl)-ethylcarbamoyl]-3,3-dimethyl-butyl}-carbamic acid tert-butyl ester], the Ki is below 100 nM.

On to `COc1cccc(C(=O)N[C@@H](CC2CCCCC2)C(=O)N[C@@H](COCc2ccccc2)CN2CCc3cc(F)ccc32)c1` [Compound 149, N-{1-(S)-[1-(R)-Benzyloxymethyl-2-(5-fluoro-2,3-dihydro-indol-1-yl)-ethylcarbamoyl]-2-cyclohexyl-ethyl}-3-methoxy-benzamide], for which the Ki was below 100 nM.

As for `COc1ccc(NC[C@H](C)NC(=O)[C@H](CC2CCCCC2)NC(=O)c2ccc(-c3cccc(F)c3)o2)cc1` [Compound 86, 5-(3-Fluoro-phenyl)-furan-2-carboxylic acid {2-cyclohexyl-1-(S)-[2-(4-methoxy-phenylamino)-1-(S)-methyl-ethylcarbamoyl]-ethyl}-amide], the Ki was below 100 nM.

As to `Cc1cccc(C(=O)N[C@@H](Cc2ccc(Cl)cc2)C(=O)NCCN2CCc3cc(F)ccc32)c1` [Compound 199, N-((S)-1-(2-(5-fluoroindolin-1-yl)ethylcarbamoyl)-2-(4-chlorophenyl)ethyl)-3-methylbenzamide], the Ki was below 100 nM.

In the case of `O=C(N[C@@H](CC1CCCCC1)C(=O)NCCN1CCc2cc(F)ccc21)C1CCN(S(=O)(=O)c2ccc(F)cc2)CC1` [Compound 66, 1-(4-Fluoro-benzenesulfonyl)-piperidine-4-carboxylic acid (S)-{2-cyclohexyl-1-[2-(5-fluoro-2,3-dihydro-indol-1-yl)-ethylcarbamoyl]-ethyl}-amide], the Ki was below 1000 nM.

Consider `C[C@@H](CNc1ccc(OC(F)(F)F)cc1)NC(=O)[C@H](CC1CCCCC1)NC(=O)O[C@H]1CCOC1` [Compound 189, {2-Cyclohexyl-1-(S)-[1-(S)-methyl-2-(4-trifluoromethoxy-phenylamino)-ethylcarbamoyl]-ethyl}-carbamic acid tetrahydrofuran-3-(S)-yl ester], for which the Ki was below 100 nM.

For the compound `COc1ccc(NC[C@H](C)NC(=O)[C@H](CC2CCCCC2)NC(=O)c2ccc(-c3ccc(F)cc3)o2)cc1` [Compound 105, 5-(4-Fluoro-phenyl)-furan-2-carboxylic acid {2-cyclohexyl-1-(S)-[2-(4-methoxy-phenylamino)-1-(S)-methyl-ethylcarbamoyl]-ethyl}-amide], the Ki was below 100 nM.

Regarding `COCCC(=O)N[C@@H](CC1CCCCC1)C(=O)N[C@@H](C)CNc1ccc(OC(F)(F)F)cc1` [Compound 123, 3-Cyclohexyl-2-(S)-(3-methoxy-propionylamino)-N-[1-(S)-methyl-2-(4-trifluoromethoxy-phenylamino)-ethyl]-propionamide], the Ki was below 100 nM.

For the compound `C[C@@H](CNc1ccc(C(=N)N)cc1)NC(=O)C(NC(=O)c1ccc(OCc2ccccc2)cc1)c1ccc(Cl)cc1Cl` (mixture of isomers) [Compound 175, 4-Benzyloxy-N-(R,S)-{[2-(4-amidinophenylamino)-1-(S)-methyl-ethylcarbamoyl]-(2,4-dichloro-phenyl)-methyl}-benzamide], the Ki was below 1000 nM.

With `C[C@@H](CNc1ccc(OC(F)(F)F)cc1)NC(=O)[C@H](CC1CCCCC1)NC(=O)c1ccc(-c2cccnc2)o1` [Compound 143, 5-Pyridin-3-yl-furan-2-carboxylic acid {2-cyclohexyl-1-(S)-[1-(S)-methyl-2-(4-trifluoromethoxy-phenylamino)-ethylcarbamoyl]-ethyl}-amide], the Ki was below 100 nM.

For `COc1cccc(C(=O)N[C@@H](CC(C)(C)C)C(=O)N[C@@H](Cc2nnn[nH]2)CN2CCc3cc(F)ccc32)c1` [Compound 166, N-{1-(S)-[2-(5-Fluoro-2,3-dihydro-indol-1-yl)-1-(S)-(1H-tetrazol-5-ylmethyl)-ethylcarbamoyl]-3,3-dimethyl-butyl}-3-methoxy-benzamide], the Ki was below 100 nM.

As for `C[C@@H](CNc1ccc(OC(F)F)cc1)NC(=O)[C@H](CC(C)(C)C)NC(=O)c1ccc(-c2cccc(F)c2)o1` [Compound 128, 5-(3-Fluoro-phenyl)-furan-2-carboxylic acid {1-(S)-[2-(4-difluoromethoxy-phenylamino)-1-(S)-methyl-ethylcarbamoyl]-3,3-dimethyl-butyl}-amide], the Ki was below 100 nM.

For `O=C(N[C@H](C(=O)N[C@H](CO)CN1CCc2cc(F)ccc21)c1ccc(Cl)cc1Cl)c1ccc(F)c(F)c1` [Compound 214, (S,S)-N-((3-(5-fluoroindolin-1-yl)-1-hydroxypropan-2-ylcarbamoyl)(2,4-dichlorophenyl)methyl)-3,4-difluorobenzamide], the Ki is below 1000 nM.

On to `COc1cccc(C(=O)N[C@@H](CCC2CCCCC2)C(=O)NCCN2CCc3cccc(F)c32)c1` [Compound 11, (S)-N-{3-Cyclohexyl-1-[2-(7-fluoro-2,3-dihydro-indol-1-yl)-ethylcarbamoyl]-propyl}-3-methoxy-benzamide], for which the Ki is below 10000 nM.

For `C[C@@H](CN1CCc2cc(F)ccc21)NC(=O)[C@H](CC(C)(C)C)NC(=O)Cc1nnn[nH]1` [Compound 179, 4,4-Dimethyl-2-(S)-(2-1H-tetrazol-5-yl-acetylamino)-pentanoic acid [2-(5-fluoro-2,3-dihydro-indol-1-yl)-1-(S)-methyl-ethyl]-amide], the Ki is below 1000 nM.

Regarding `C[C@@H](CNc1cccc(S(C)(=O)=O)c1)NC(=O)[C@H](CC(C)(C)C)NC(=O)c1ccc(-c2cccc(F)c2)o1` [Compound 130, 5-(3-Fluoro-phenyl)-furan-2-carboxylic acid {1-(S)-[2-(3-methanesulfonyl-phenylamino)-1-(S)-methyl-ethylcarbamoyl]-3,3-dimethyl-butyl}-amide], the Ki is below 100 nM.

Take `C[C@@H](CNc1cccc(-c2nnn[nH]2)c1)NC(=O)[C@H](CC1CCCCC1)NC(=O)OCc1ccccc1` [Compound 180, (2-Cyclohexyl-1-(S)-{1-(S)-methyl-2-[3-(1H-tetrazol-5-yl)-phenylamino]-ethylcarbamoyl}-ethyl)-carbamic acid benzyl ester]: the Ki is below 1000 nM.

For the compound `C[C@@H](CNc1cccc(Cl)c1)NC(=O)[C@H](CC1CCCCC1)NC(=O)c1ccc(-c2cccc(F)c2)o1` [Compound 94, 5-(3-Fluoro-phenyl)-fuiran-2-carboxylic acid {1-(S)-[2-(3-chloro-phenylamino)-1-(S)-methyl-ethylcarbamoyl]-2-cyclohexyl-ethyl}-amide], the Ki was below 100 nM.

`C[C@@H](CNc1cccc(C(=O)N(C)C)c1)NC(=O)[C@H](CC1CCCCC1)NC(=O)c1ccc(-c2cccc(F)c2)o1` [Compound 120, 5-(3-Fluoro-phenyl)-furan-2-carboxylic acid {2-cyclohexyl-1-(S)-[2-(3-dimethylcarbamoyl-phenylamino)-1-(S)-methyl-ethylcarbamoyl]-ethyl}-amide]: the Ki is below 100 nM.

For `C[C@@H](CNc1cccc(F)c1F)NC(=O)[C@H](CC1CCCCC1)NC(=O)c1ccc(-c2cccc(F)c2)o1` [Compound 90, 5-(3-Fluoro-phenyl)-furan-2-carboxylic acid {2-cyclohexyl-1-(S)-[2-(2,3-difluoro-phenylamino)-1-(S)-methyl-ethylcarbamoyl]-ethyl}-amide], the Ki was below 100 nM.
